Where a name gives a salt, the structure may show the parent alone.
Assays:
[1] = biological target: T1, Recombinant human integrin ανβ1 (Homo sapiens, UniProt P05556+P06756); assay: Solid Phase Receptor Assay (SPRA) for ανβ1 function; assay type: binding; conditions: plate-bound human fibronectin; read-out: αvβ1 SPRA IC50
T1 construct: purchased R&D Systems 6579-AV
Description: B. Solid Phase Receptor Assay (SPRA) for ανβ1 Function
Wells were washed 3 times with 150 μL TBS+ and then 150 μL of blocking buffer (TBS+ with 1% bovine serum albumin, Sigma A7906) was added. The plate was incubated for 1 hr at 37° C. and then washed 3× with TBS+ buffer. […] Compounds were diluted to 20 μM and 1 μL was added to each well of the plate according to a standard template with each sample repeated in triplicate. After incubation for two hours at room temperature, the plate was washed 3 with 150 μL of TBS+ buffer. To each well, 50 μL of biotinylated anti-αν antibody (R&D Systems, BAF1219) at 1 μg/mL in TBS+/0.1% BSA were added and the plate covered and incubated for 1 hr at room temperature. After washing the plate 3× with 150 μL of TBS+ buffer, 50 μL of streptavidin-conjugated horseradish peroxidase (R&D Systems, DY998) diluted in TBS+ blocking buffer were added to the wells and the plate incubated for 20 min at room temperature. The plate was washed 3× with TBS+ buffer followed by 50 μL of TMB substrate (Sigma, T4444) added to each well in the dark and the plate incubated for 25 min at room temperature. 25 μL of 1.0 M phosphoric acid was added as a stop solution and the plates were read at 450 nm using a Spectramax plate reader.

[2] = biological target: T2, Recombinant human integrin ανβ3 (Homo sapiens, UniProt P05106+P06756); assay: Solid Phase Receptor Assay (SPRA) for ανβ3 function; assay type: binding; conditions: plate-bound human vitronectin; read-out: αvβ3 SPRA IC50
T2 construct: purchased R&D Systems 3050-AV
Description: C. Solid Phase Receptor Assay (SPRA) for ανβ3 Function
Wells were washed 3 times with 150 μL TBS+ and then 150 μL of blocking buffer (TBS+ with 1% bovine serum albumin, Sigma A7906) was added. The plate was incubated for 1 hr at 37° C. and then washed 3× with TBS+ buffer. […] Compounds were diluted to 20 μM and then 1 μL was added to each well of the plate according to a standard template with each sample repeated in triplicate. After incubation for two hours at room temperature, the plate was washed 3× with 150 μL of TBS+ buffer. To each well, 50 μL of biotinylated anti-αν antibody (R&D Systems, BAF1219) at 0.5 μg/mL in TBS+/0.1% BSA were added and the plate covered and incubated for 1 hr at room temperature. After washing the plate 3× with 150 μL of TBS+ buffer, 50 μL of streptavidin-conjugated horseradish peroxidase (R&D Systems, DY998) diluted in TBS+ blocking buffer were added to the wells and the plate incubated for 20 min at room temperature. The plate was washed 3× with TBS+ buffer followed by 50 μL of TMB substrate (Sigma, T4444) added to each well in the dark and the plate was incubated for 25 min at room temperature. 25 μL of 1.0 M phosphoric acid was added as a stop solution and the plates were read at 450 nm using a Spectramax plate reader.

T1 sequence (P06756 31-992 limits assumed): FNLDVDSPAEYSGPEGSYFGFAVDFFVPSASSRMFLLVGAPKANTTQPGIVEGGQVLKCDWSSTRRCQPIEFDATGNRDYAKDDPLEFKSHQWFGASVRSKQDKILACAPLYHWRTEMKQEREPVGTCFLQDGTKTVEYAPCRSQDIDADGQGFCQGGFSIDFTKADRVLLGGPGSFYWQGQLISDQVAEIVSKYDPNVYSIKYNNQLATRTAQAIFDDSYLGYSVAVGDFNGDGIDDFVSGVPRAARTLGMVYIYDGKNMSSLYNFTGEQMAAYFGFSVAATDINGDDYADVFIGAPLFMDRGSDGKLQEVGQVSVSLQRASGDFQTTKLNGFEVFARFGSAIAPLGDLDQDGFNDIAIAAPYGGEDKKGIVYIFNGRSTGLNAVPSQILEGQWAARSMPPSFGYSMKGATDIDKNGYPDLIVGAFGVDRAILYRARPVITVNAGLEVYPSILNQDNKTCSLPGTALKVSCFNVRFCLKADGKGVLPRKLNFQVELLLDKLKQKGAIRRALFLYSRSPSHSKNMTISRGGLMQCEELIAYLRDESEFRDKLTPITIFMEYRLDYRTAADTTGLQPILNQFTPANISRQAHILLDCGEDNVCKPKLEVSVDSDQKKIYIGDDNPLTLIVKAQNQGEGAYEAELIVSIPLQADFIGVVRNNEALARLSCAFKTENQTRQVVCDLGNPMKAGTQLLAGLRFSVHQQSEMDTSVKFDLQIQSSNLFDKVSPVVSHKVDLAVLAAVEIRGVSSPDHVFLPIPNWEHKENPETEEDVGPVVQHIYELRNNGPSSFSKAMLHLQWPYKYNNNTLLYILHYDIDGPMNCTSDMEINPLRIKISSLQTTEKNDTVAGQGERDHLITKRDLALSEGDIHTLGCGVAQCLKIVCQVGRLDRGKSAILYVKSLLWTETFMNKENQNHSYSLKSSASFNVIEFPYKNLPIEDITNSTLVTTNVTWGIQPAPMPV
T1 sequence (P05556 21-728 limits assumed): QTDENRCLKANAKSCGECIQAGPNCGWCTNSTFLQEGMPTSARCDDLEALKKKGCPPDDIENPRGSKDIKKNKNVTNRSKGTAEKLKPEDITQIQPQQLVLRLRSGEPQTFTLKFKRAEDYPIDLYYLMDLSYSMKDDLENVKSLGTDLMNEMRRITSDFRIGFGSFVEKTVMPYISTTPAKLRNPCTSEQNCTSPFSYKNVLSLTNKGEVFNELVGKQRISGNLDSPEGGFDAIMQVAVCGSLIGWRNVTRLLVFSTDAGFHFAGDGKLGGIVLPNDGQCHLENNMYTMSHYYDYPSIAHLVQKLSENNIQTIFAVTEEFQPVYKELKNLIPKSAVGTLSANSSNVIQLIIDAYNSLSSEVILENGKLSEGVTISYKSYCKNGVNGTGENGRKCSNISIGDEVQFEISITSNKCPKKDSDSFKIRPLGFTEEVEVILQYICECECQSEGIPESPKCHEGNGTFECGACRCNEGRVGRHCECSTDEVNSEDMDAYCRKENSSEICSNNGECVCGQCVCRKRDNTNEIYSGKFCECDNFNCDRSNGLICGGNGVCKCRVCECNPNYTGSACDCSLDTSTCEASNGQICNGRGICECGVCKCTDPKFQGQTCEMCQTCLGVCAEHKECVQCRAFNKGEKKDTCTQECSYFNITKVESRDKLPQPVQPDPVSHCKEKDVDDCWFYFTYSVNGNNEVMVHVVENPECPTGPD
T2 sequence (P06756 31-992 limits assumed): as the sequence (P06756 31-992 limits assumed) above
T2 sequence (P05106 27-718 limits assumed): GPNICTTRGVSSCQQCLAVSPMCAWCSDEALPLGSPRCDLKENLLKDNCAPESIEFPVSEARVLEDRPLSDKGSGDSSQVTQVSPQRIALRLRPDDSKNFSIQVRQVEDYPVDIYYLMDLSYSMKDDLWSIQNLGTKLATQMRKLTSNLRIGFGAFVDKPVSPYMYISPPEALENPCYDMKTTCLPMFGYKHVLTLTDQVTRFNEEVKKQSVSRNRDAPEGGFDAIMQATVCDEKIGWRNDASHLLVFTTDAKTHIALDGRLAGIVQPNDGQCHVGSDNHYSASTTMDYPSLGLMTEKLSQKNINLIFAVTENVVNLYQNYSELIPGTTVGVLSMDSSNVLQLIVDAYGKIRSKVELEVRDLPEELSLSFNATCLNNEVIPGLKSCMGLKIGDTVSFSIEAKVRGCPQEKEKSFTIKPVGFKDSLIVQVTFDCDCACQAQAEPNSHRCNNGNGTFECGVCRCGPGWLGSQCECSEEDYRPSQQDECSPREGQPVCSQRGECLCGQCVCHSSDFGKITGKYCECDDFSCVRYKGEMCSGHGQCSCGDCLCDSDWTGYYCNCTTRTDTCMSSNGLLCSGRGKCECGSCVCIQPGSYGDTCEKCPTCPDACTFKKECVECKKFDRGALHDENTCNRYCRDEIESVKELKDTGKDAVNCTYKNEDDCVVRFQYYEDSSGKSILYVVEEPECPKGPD

SMILES | IC50 [1] [nM] | IC50 [2] [nM]
Cn1nc(CC(CC(=O)O)c2cc(Br)cc(C(C)(C)C)c2)cc1OCCc1ccc2c(n1)NCCC2 (centres unmarked) [Example 16, 3-(3-bromo-5-tert-butyl-phenyl)-4-(1-methyl-5-(2-(5,6,7,8-tetrahydro-1,8-naphthyridin-2-yl)ethoxy)-1H-pyrazol-3-yl)butanoic Acid] | 3 | 7.7
Cn1nc(CC(CC(=O)O)c2cc(Br)cc(C(C)(C)C(F)(F)F)c2)cc1OCCc1ccc2c(n1)NCCC2 (centres unmarked) [Example 26, 3-[3-bromo-5-(2,2,2-trifluoro-1,1-dimethyl-ethyl)phenyl]-4-[1-methyl-5-[2-(5,6,7,8-tetrahydro-1,8-naphthyridin-2-yl)ethoxy]pyrazol-3-yl]butanoic Acid] | 6.8 | 9.6
CC(C)(C)c1cc(Br)cc(C(CC(=O)O)Cc2cc(OCCc3ccc4c(n3)NCCC4)n(CC(F)(F)F)n2)c1 (centres unmarked) [Example 41, 3-(3-bromo-5-tert-butyl-phenyl)-4-[5-[2-(5,6,7,8-tetrahydro-1,8-naphthyridin-2-yl)ethoxy]-1-(2,2,2-trifluoroethyl)pyrazol-3-yl]butanoic Acid Trifluoroacetate] | 4.5 | 9
Cn1nc(CC(CC(=O)O)c2cccc(Br)c2)cc1OCCc1ccc2c(n1)NCCC2 (centres unmarked) [Example 6, 3-(3-bromophenyl)-4-(1-methyl-5-(2-(5,6,7,8-tetrahydro-1,8-naphthyridin-2-yl)ethoxy)-1H-pyrazol-3-yl)butanoic Acid] | 10 | 5
Cn1nc(CC(CC(=O)O)c2cc(F)cc(Cl)c2)cc1OCCc1ccc2c(n1)NCCC2 (centres unmarked) [Example 2, 3-(3-chloro-5-fluorophenyl)-4-(1-methyl-5-(2-(5,6,7,8-tetrahydro-1,8-naphthyridin-2-yl)ethoxy)-1H-pyrazol-3-yl)butanoic Acid] | 5 | 4
Cn1nc(CC(CC(=O)O)c2cc(C(F)(F)F)cc(C(C)(C)C(F)(F)F)c2)cc1OCCc1ccc2c(n1)NCCC2 (centres unmarked) [Example 25, 4-[1-methyl-5-[2-(5,6,7,8-tetrahydro-1,8-naphthyridin-2-yl)ethoxy]pyrazol-3-yl]-3-[3-(2,2,2-trifluoro-1,1-dimethylethyl)-5-(trifluoromethyl)phenyl]butanoic Acid] | 3.1 | 4.6
COc1ccc(Br)cc1C(CC(=O)O)Cc1cc(OCCc2ccc3c(n2)NCCC3)n(C)n1 (centres unmarked) [Example 14, 3-(5-bromo-2-methoxyphenyl)-4-(1-methyl-5-(2-(5,6,7,8-tetrahydro-1,8-naphthyridin-2-yl)ethoxy)-1H-pyrazol-3-yl)butanoic acid trifluoroacetate] | 5 | 6.7
COc1ccc(C(F)(F)F)cc1C(CC(=O)O)Cc1cc(OCCc2ccc3c(n2)NCCC3)n(C)n1 (centres unmarked) [Example 13, 3-(2-methoxy-5-(trifluoromethyl)phenyl)-4-(1-methyl-5-(2-(5,6,7,8-tetrahydro-1,8-naphthyridin-2-yl)ethoxy)-1H-pyrazol-3-yl)butanoic Acid Trifluoroacetate] | 5.8 | 11
COCC1(c2cc(C(CC(=O)O)Cc3cc(OCCc4ccc5c(n4)NCCC5)n(C)n3)cc(C(F)(F)F)c2)CCOCC1 (centres unmarked) [Example 31, 3-(3-(4-(methoxymethyl)tetrahydro-2H-pyran-4-yl)-5-(trifluoromethyl)phenyl)-4-(1-methyl-5-(2-(5,6,7,8-tetrahydro-1,8-naphthyridin-2-yl)ethoxy)-1H-pyrazol-3-yl)butanoic Acid] | 1.4 | 6.5
COc1ccc(C(C)C)cc1C(CC(=O)O)Cc1cc(OCCc2ccc3c(n2)NCCC3)n(C)n1 (centres unmarked) [Example 39, 3-(5-isopropyl-2-methoxyphenyl)-4-(1-methyl-5-(2-(5,6,7,8-tetrahydro-1,8-naphthyridin-2-yl)ethoxy)-1H-pyrazol-3-yl)butanoic Acid Trifluoroacetate] | 3.2 | 290
Cn1nc(CC(CC(=O)O)c2cc(Br)cc(OC(F)(F)F)c2)cc1OCCc1ccc2c(n1)NCCC2 (centres unmarked) [Example 11, 3-(3-bromo-5-(trifluoromethoxy)phenyl)-4-(1-methyl-5-(2-(5,6,7,8-tetrahydro-1,8-naphthyridin-2-yl)ethoxy)-1H-pyrazol-3-yl)butanoic Acid] | 11 | 6
Cn1nc(CC(CC(=O)O)c2cccc(C#N)c2)cc1OCCc1ccc2c(n1)NCCC2 (centres unmarked) [Example 9, 3-(3-cyanophenyl)-4-(1-methyl-5-(2-(5,6,7,8-tetrahydro-1,8-naphthyridin-2-yl)ethoxy)-1H-pyrazol-3-yl)butanoic Acid] | 9 | 6
Cn1nc(CC(CC(=O)O)c2cc(C#N)cc(C(C)(C)C(F)(F)F)c2)cc1OCCc1ccc2c(n1)NCCC2 (centres unmarked) [Example 28, 3-[3-cyano-5-(2,2,2-trifluoro-1,1-dimethyl-ethyl)phenyl]-4-[1-methyl-5-[2-(5,6,7,8-tetrahydro-1,8-naphthyridin-2-yl)ethoxyl]pyrazol-3-yl]butanoic Acid Trifluoroacetate] | 3.9 | 10
Cn1nc(CC(CC(=O)O)c2cc(C(C)(C)C)ccc2Cl)cc1OCCc1ccc2c(n1)NCCC2 (centres unmarked) [Example 43, 3-(5-(tert-butyl)-2-chlorophenyl)-4-(1-methyl-5-(2-(5,6,7,8-tetrahydro-1,8-naphthyridin-2-yl)ethoxy)-1H-pyrazol-3-yl)butanoic Acid Trifluoroacetate] | 7.3 | 94.4
Cn1nc(CC(CC(=O)O)c2cc(Cl)cc(C3(C(F)F)CC3)c2)cc1OCCc1ccc2c(n1)NCCC2 (centres unmarked) [Example 22, 3-(3-chloro-5-(1-(difluoromethyl)cyclopropyl)phenyl)-4-(1-methyl-5-(2-(5,6,7,8-tetrahydro-1,8-naphthyridin-2-yl)ethoxy)-1H-pyrazol-3-yl)butanoic Acid] | 2.2 | 3.3
COc1c(C(CC(=O)O)Cc2cc(OCCc3ccc4c(n3)NCCC4)n(C)n2)cccc1C(C)(C)C (centres unmarked) [Example 33, 3-(3-(tert-butyl)-2-methoxyphenyl)-4-(1-methyl-5-(2-(5,6,7,8-tetrahydro-1,8-naphthyridin-2-yl)ethoxy)-1H-pyrazol-3-yl)butanoic Acid] | 2400 | 150
COc1ccc(C(=O)O)cc1C(CC(=O)O)Cc1cc(OCCc2ccc3c(n2)NCCC3)n(C)n1 (centres unmarked) [Example 48, 3-(1-carboxy-3-(1-methyl-5-(2-(5,6,7,8-tetrahydro-1,8-naphthyridin-2-yl)ethoxy)-1H-pyrazol-3-yl)propan-2-yl)-4-methoxybenzoic Acid Trifluoroacetate] | 19 | 5
Cn1nc(CC(CC(=O)O)c2cc(C(C)(C)C)cc(C(F)(F)F)c2)cc1OCCc1ccc2c(n1)NCCC2 (centres unmarked) [Example 37, 3-[3-tert-butyl-5-(trifluoromethyl)phenyl]-4-[1-methyl-5-[2-(5,6,7,8-tetrahydro-1,8-naphthyridin-2-yl)ethoxyl]pyrazol-3-yl]butanoic Acid] | 7.5 | 7.3
Cn1nc(CC(CC(=O)O)c2cc(F)cc(C(C)(C)C)c2)cc1OCCc1ccc2c(n1)NCCC2 (centres unmarked) [Example 38, 3-(3-(tert-butyl)-5-fluorophenyl)-4-(1-methyl-5-(2-(5,6,7,8-tetrahydro-1,8-naphthyridin-2-yl)ethoxy)-1H-pyrazol-3-yl)butanoic Acid] | 4.5 | 7.9
Cn1nc(CC(CC(=O)O)c2cc(F)cc(C3(C(F)F)CC3)c2)cc1OCCc1ccc2c(n1)NCCC2 (centres unmarked) [Example 21, 3-(3-(1-(difluoromethyl)cyclopropyl)-5-fluorophenyl)-4-(1-methyl-5-(2-(5,6,7,8-tetrahydro-1,8-naphthyridin-2-yl)ethoxy)-1H-pyrazol-3-yl)butanoic Acid] | 3.7 | 2.5
Cn1nc(CC(CC(=O)O)c2ccc(C#N)c(F)c2)cc1OCCc1ccc2c(n1)NCCC2 (centres unmarked) [Example 8] | 12 | 6
CC(C)c1cc(Br)cc(C(CC(=O)O)Cc2cc(OCCc3ccc4c(n3)NCCC4)n(C)n2)c1 (centres unmarked) [Example 40, 3-(3-bromo-5-isopropyl-phenyl)-4-[1-methyl-5-[2-(5,6,7,8-tetrahydro-1,8-naphthyridin-2-yl)ethoxyl]pyrazol-3-yl]butanoic acid trifluoroacetate] | 6.3 | 7.2

Source: patent publication US11306084B2, “Integrin antagonists” (Saint Louis University, priority 2016, dated 2022)
